Test [1] deals with spindle assembly checkpoint. The experiment in a line: SAC-Formation - Nocodazole-Induced Assay. The test is classed as cell-based. Conditions: Homo sapiens; HeLa cells, nocodazole 0.1 μg/ml, 24 h, phosphorylated histone H3 on serine 10. The method, boiled down: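 HeLa cells were given nocodazole at 0.1 μg/ml final together with compounds (0.005–20 μM, 0.5% DMSO) for 24 h at 37° C. Mitotic cells were counted by phospho-histone H3 Ser10 immunostaining, with cell number from HOECHST 33342, by high-content imaging. The loss of mitotic cells was fitted with a four-parameter Hill equation.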

The next test addresses human Bub1 (Homo sapiens (Human), UniProt O43683). The experiment in a line: Bub1 kinase assay (TR-FRET). To be noted: 10 μM ATP; read-out: Bub1 avg (IC50 [mol/l]). In kind it is biochemical. An excerpt: Bub1-inhibitory activity of compounds of the present invention was quantified employing the Bub1 TR-FRET assay as described in the following paragraphs.
N-terminally His6-tagged recombinant catalytic domain of human Bub1 (amino acids 704-1085), expressed in insect cells (Hi5) and purified by Ni-NTA affinity chromatography and subsequent size exclusion chromatography, was used as enzyme. As substrate for the kinase reaction the biotinylated peptide biotin-Ahx-VLLPKKSFAEPG (C-terminus in amid form) was used which can be purchased e.g. form the company Biosyntan (Berlin, Germany).
For the assay 50 nl of a 100 fold concentrated solution of the test compound in DMSO was pipetted into a black low volume 384 well microtiter plate (Greiner Bio-One, Frickenhausen, Germany), 2 μl of a solution of Bub1 in aqueous assay buffer [50 mM Tris/HCl pH 7.5, 10 mM magnesium chloride (MgCl2), 200 mM potassium chloride (KCl), 1.0 mM dithiothreitol (DTT), 0.1 mM sodium ortho-vanadate, 1% (v/v) glycerol, 0.01% (w/v) bovine serum albumine (BSA), 0.005% (v/v) Trition X-100 (Sigma), 1× Complete EDTA-free protease inhibitor mixture (Roche)] were added and the mixture was incubated for 15 min at 22° C. to allow pre-binding of the test compounds to the enzyme before the start of the kinase reaction. Then the kinase reaction was started by the addition of 3 μl of a solution of adenosine-tri-phosphate (ATP, 16.7 μM=>final conc. in the 5 μl assay volume is 10 μM) and substrate (1.67 μM=>final conc. in the 5 μl assay volume is 1 μM) in assay buffer and the resulting mixture was incubated for a reaction time of 60 min at 22° C. The concentration of Bub1 was adjusted depending of the activity of the enzyme lot and was chosen appropriate to have the assay in the linear range, typical concentrations were in the range of 200 ng/ml. The reaction was stopped by the addition of 5 μl of a solution of TR-FRET detection reagents (0.2 μM streptavidine-XL665 [Cisbio Bioassays, Codolet, France] and 1 nM anti-phosho-Serine antibody [Merck Millipore, cat. #35-001] and 0.4 nM LANCE EU-W1024 labeled anti-mouse IgG antibody [Perkin-Elmer, product no. AD0077, as an alternative a Terbium-cryptate-labeled anti-mouse IgG antibody from Cisbio Bioassays can be used]) in an aqueous EDTA-solution (50 mM EDTA, 0.2% (w/v) bovine serum albumin in 100 mM HEPES pH 7.5).
The resulting mixture was incubated 1 h at 22° C. to allow the formation of complex between the phosphorylated biotinylated peptide and the detection reagents. Subsequently the amount of phosphorylated substrate was evaluated by measurement of the resonance energy transfer from the Eu-chelate to the streptavidine-XL. Therefore, the fluorescence emissions at 620 nm and 665 nm after excitation at 350 nm was measured in a TR-FRET reader, e.g. a Rubystar or Pherastar (both from BMG Labtechnologies, Offenburg, Germany) or a Viewlux (Perkin-Elmer). The ratio of the emissions at 665 nm and at […] was taken as the measure for the amount of phosphorylated substrate. The data were normalised (enzyme reaction without inhibitor=0% inhibition, all other assay components but no enzyme=100% inhibition).
A general note: Time-resolved FRET reads energy transfer from a long-lived donor to a nearby acceptor.

SMILES strings stand for the structures. pIC50: −log10 of the molar value.

Chain of human Bub1 (O43683 704-1085): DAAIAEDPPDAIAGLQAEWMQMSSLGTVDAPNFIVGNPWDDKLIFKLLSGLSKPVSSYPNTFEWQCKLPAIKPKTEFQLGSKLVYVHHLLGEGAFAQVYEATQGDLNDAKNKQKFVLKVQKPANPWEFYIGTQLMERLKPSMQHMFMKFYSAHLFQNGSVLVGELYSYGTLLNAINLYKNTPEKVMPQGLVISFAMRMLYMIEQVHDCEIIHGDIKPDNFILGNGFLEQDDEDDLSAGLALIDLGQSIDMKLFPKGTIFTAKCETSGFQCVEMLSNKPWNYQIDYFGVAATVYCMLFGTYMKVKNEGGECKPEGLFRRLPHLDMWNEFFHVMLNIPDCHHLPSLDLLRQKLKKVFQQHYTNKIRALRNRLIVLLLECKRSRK

For the molecule `CCc1ccccc1NC(=O)c1c(C)nsc1Nc1cnc2ccc(Cl)cc2n1` [Example 41, 5-[(7-Chloroquinoxalin-2-yl)amino]-N-(2-ethylphenyl)-3-methyl-1,2-thiazole-4-carboxamide], the pIC50 in test [1] is 6.80; on human Bub1 it was below 4.70.

For the molecule `COc1ccc(NC(=O)c2c(C)nsc2Nc2cnc3ccc(Cl)cc3n2)cn1` [Example 42, 5-[(7-Chloroquinoxalin-2-yl)amino]-N-(6-methoxypyridin-3-yl)-3-methyl-1,2-thiazole-4-carboxamide], the pIC50 was 6.59 in test [1] and below 4.70 on human Bub1.

In the case of `COc1ccc(NC(=O)c2c(C)nsc2Nc2cnc3c(F)c(F)ccc3n2)cn1` [Example 43, 5-[(5,6-Difluoroquinoxalin-2-yl)amino]-N-(6-methoxypyridin-3-yl)-3-methyl-1,2-thiazole-4-carboxamide], the pIC50 in test [1] was 7.47; on human Bub1 it was below 4.70.

On to `COc1ccc(NC(=O)c2c(C)nsc2Nc2cnc3ccc(F)cc3n2)cn1` [Example 44, 5-[(7-Fluoroquinoxalin-2-yl)amino]-N-(6-methoxypyridin-3-yl)-3-methyl-1,2-thiazole-4-carboxamide], for which the pIC50 was 6.70 in test [1] and below 4.70 at human Bub1.

For the molecule `COc1ccc(NC(=O)c2c(C)nsc2Nc2cnc3cc(C(F)(F)F)ccc3n2)cn1` [Example 45, N-(6-Methoxypyridin-3-yl)-3-methyl-5-{[6-(trifluoromethyl)quinoxalin-2-yl]amino}-1,2-thiazole-4-carboxamide], the figures for the pIC50 (in test [1]; on human Bub1) were 7.27 and below 4.70, respectively.

`Cc1nsc(Nc2cnc3cc(F)ccc3n2)c1C(=O)Nc1ccc(F)c(F)c1` [Example 46, N-(3,4-Difluorophenyl)-5-[(6-fluoroquinoxalin-2-yl)amino]-3-methyl-1,2-thiazole-4-carboxamide]: the pIC50 was 7.21 in test [1] and below 4.70 on human Bub1.

For `COc1ccc(NC(=O)c2c(C)nsc2Nc2nc3c(C(F)(F)F)cccc3s2)cc1F` [Example 47, N-(3-Fluoro-4-methoxyphenyl)-3-methyl-5-{[4-(trifluoromethyl)-1,3-benzothiazol-2-yl]amino}-1,2-thiazole-4-carboxamide], the pIC50 in test [1] is 7.04; on human Bub1, below 4.70.

Take `COc1ccc(NC(=O)c2c(C)nsc2Nc2nc3c(C(F)(F)F)cccc3s2)cn1` [Example 48, N-(6-Methoxypyridin-3-yl)-3-methyl-5-{[4-(trifluoromethyl)-1,3-benzothiazol-2-yl]-amino}-1,2-thiazole-4-carboxamide]: the pIC50 was 6.89 in test [1] and below 4.70 at human Bub1.

As to `Cc1nsc(Nc2ncc(C(=O)N(C)C)s2)c1C(=O)Nc1ccc(F)c(F)c1` [Example 49, N-(3,4-Difluorophenyl)-5-{[5-(dimethylcarbamoyl)-1,3-thiazol-2-yl]amino}-3-methyl-1,2-thiazole-4-carboxamide], the results for the pIC50 (in test [1]; on human Bub1) were 6.46 and below 4.70, respectively.

With `Cc1nsc(Nc2cnc3ccccc3n2)c1C(=O)Nc1ccc(F)c(F)c1` [Example 50, N-(3,4-Difluorophenyl)-3-methyl-5-(quinoxalin-2-ylamino)-1,2-thiazole-4-carboxamide], the figures for the pIC50 (in test [1]; on human Bub1) were 7.25 and below 4.70, respectively.

For the molecule `Cc1nsc(Nc2nc3c(C(F)(F)F)cccc3s2)c1C(=O)Nc1ccc(F)c(F)c1` [Example 51, N-(3,4-Difluorophenyl)-3-methyl-5-{[4-(trifluoromethyl)-1,3-benzothiazol-2-yl]-amino}-1,2-thiazole-4-carboxamide], the pIC50 in test [1] is 7.41; on human Bub1, below 4.70.

As to `Cc1nsc(Nc2ccc(C#N)cn2)c1C(=O)Nc1ccc(Cl)c(F)c1` [Example 52, N-(4-Chloro-3-fluorophenyl)-5-[(5-cyanopyridin-2-yl)amino]-3-methyl-1,2-thiazole-4-carboxamide], the pIC50 in test [1] is 7.47; at human Bub1, below 4.70.

(Values after patent US9682995B2, “Amino-substituted isothiazoles” (BAYER PHARMA AKTIENGESELLSCHAFT, priority 2013, dated 2017).)
